# From patent US20250084095A1, “Aminopyrimidine Derivatives as Cyclin-Dependent Kinase Inhibitors” (Accutar Biotechnology Inc., priority 2023, published 2025)
# Key:
# [1] = test system: Phospho-Rb (Ser807/811) in MCF7 cells; experiment: Phospho-Rb expression inhibition in MCF7 cells quantified by in cell Western; assay type: cell-based, human; conditions: Homo sapiens, MCF7, 24 h, 24 hours, in cell Western, read-out: MCF7 pRb IC50
# How it was run: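 MCF7 cells were seeded at 20,000/well, grown overnight, then treated 24 h at 37 °C with compound dilutions (0.1% DMSO from 1000× stocks). Fixed cells were co-stained for phospho-Rb Ser807/811 and total Rb. Near-infrared dual-channel in-cell Western imaging was the read-out.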
# [2] = test system: Phospho-Rb (Ser807/811) in SW1573-CDK6 KO cells; experiment: Phospho-Rb expression inhibition in SW1573-CDK6 KO cells quantified by in cell Western; assay type: cell-based; conditions: Homo sapiens, 24 hours, read-out: SW1573 CDK6 KO pRb IC50
# Protocol: (§1) Parental SW1573 cells were obtained from the American Type Culture Collection (ATCC). CDK4 or CDK6 gene in […] cells was knocked out using the CRISPR-Cas9 technology. First, gRNA complex of CDK4 or CDK6 was prepared with Alt-R CRISPR-Cas9 tracrRNA and crRNA CDK4 (5′-[…]-3′ (SEQ ID NO: 4)) or CDK6 (5′-[…]-3′ (SEQ ID NO. 5)) (IDT-Integrated DNA Technologies), and then ribonucleoprotein (RNP) complex of CDK4 or CDK6 was prepared with respective gRNA complex and Alt-R S.p. Cas9 Nuclease V3 (IDT-Integrated DNA Technologies). Next, 5×10^4/10 μL SWJ1573 cells were electroporated with the CDK4 or CDK6 RNP complex and Alt-R Cas9 Electroporation Enhancer using Neon Transfection System (Thermo Fisher). Cells were then plated in a 96-well plate to select single clones for validation of CDK4 or CDK6 knockout by western blot analysis.
# (§2) MCF7 cells were obtained from American Type Culture Collection (ATCC, HTB-22). SW1573-CDK6 KO and SW1573-CDK4 KO cells were generated by the CRISPR-Cas9 technology. All cells were plated in 96-well plates (VWR #10062-900, or Corning #3904) in 90 uL culture medium at a density of 20,000 cells/well in the respective growth medium containing 10% FBS and 1% Penicillin Streptomycin, and then incubated at 37° C. overnight. The following day, the test compound was administered to the cells by using 1000× compound stock solution prepared in DMSO at various concentrations. 1000× compound stock solution was first diluted in culturing medium to 10×, then 10 uL compound medium was added to each well in the cell plates. After administration of the compound, the cells were then incubated at 37° C. for 24 hours. Upon completion, the cells were washed with PBS briefly. 150 uL/well of 4% formaldehyde was added and the plates were incubated at room temperature for 20 mins. The cells were washed with PBS briefly, and permeabilized with 150 uL/well of ice cold 100% methanol for 10 mins. The cells were washed with PBS briefly and blocked with 100 uL/well LI-COR blocking buffer for 1 hr at room temperature with gentle shaking. The cells were incubated overnight at 4° C. with 50 uL primary antibody rabbit anti-Phospho-Rb (Ser807/811) (1: 500, Cell Signaling, #8516) and anti-Rb (1:200, Santa Cruz, sc-73598) diluted in Intercept Blocking Buffer (LI-COR, #927-60001) containing 0.1% Tween 20. The next day, the cells were washed with 200 uL PBS containing 0.1% Tween 20, 5×5 mins at room temperature with gentle shaking, and incubated with 50 uL secondary antibody, IRDye® 800CW Goat anti-Rabbit IgG (1:1000, LI-COR, #926-32211) and IRDye®680RD Goat anti-Mouse IgG (1:1000, LI-COR, #926-68070), in LI-COR blocking buffer with 0.2% Tween 20 for 1 hr at room temperature with gentle shaking. The cells were washed with 200 uL PBS containing 0.1% Tween 20, 5×5 mins at room temperature with gentle shaking. The cells were washed with PBS for 5 mins. 100 uL fresh PBS was added to each well and the plates were imaged on a LI-COR Odyssey CLX plate reader.
# [3] = test system: Phospho-Rb (Ser807/811) in SW1573-CDK4 KO cells; experiment: Phospho-Rb expression inhibition in SW1573-CDK4 KO cells quantified by in cell Western; assay type: cell-based; conditions: Homo sapiens, 24 hours, read-out: SW1573 CDK4 KO pRb IC50
# Protocol: as §1, §2
# 22RV1 cells = experiment: Cell growth inhibition of 22RV1 cells (CellTiter-Glo); assay type: cell-based; conditions: Homo sapiens, 22Rv1, 120 h, 5 days, CellTiter-Glo, read-out: 22RV1 Cell Growh GI50
# How it was run: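 22RV1 cells were plated in RPMI1640 with FBS (20% in one version, 10% in the other) and dosed next day at various concentrations from DMSO stocks. After 5 days at 37 °C, viability was measured by CellTiter-Glo luminescence.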
SMILES,IC50 [1],IC50 [2],IC50 [3],GI50 (22RV1 cells)
"CC(C)n1c([C@H]2C[C@H]2C(=O)N(C)C)nc2c(F)cc(-c3nc(N[C@@H]4C[C@H]5CO[C@H](O5)[C@H]4O)ncc3Cl)cc21 [Compound 248, (1R,2S)-2-(6-(5-chloro-2-(((1S,3R,4S,5R)-4-hydroxy-6,8-dioxabicyclo[3.2.1]octan-3-yl)amino)pyrimidin-4-yl)-4-fluoro-1-isopropyl-1H-benzo[d]imidazol-2-yl)-N,N-dimethylcyclopropane-1-carboxamide]",40 to 150 nM,150 to 1000 nM,> 1000 nM,
"CC(C)n1c(C2CCC2(F)F)nc2c(F)cc(-c3nc(N[C@@H]4C[C@H]5CO[C@H](O5)[C@H]4O)ncc3Cl)cc21 (stereo partly drawn) [Compound 239, (1S,3R,4S,5R)-3-((5-chloro-4-(2-(2,2-difluorocyclobutyl)-4-fluoro-1-isopropyl-1H-benzo[d]imidazol-6-yl)pyrimidin-2-yl)amino)-6,8-dioxabicyclo[3.2.1]octan-4-ol]",≤ 40 nM,≤ 40 nM,150 to 1000 nM,
"CC(C)n1c(C2CC(F)C2)nc2c(F)cc(-c3nc(N[C@@H]4C[C@H]5CO[C@H](O5)[C@H]4O)ncc3Cl)cc21 (stereo partly drawn) [Compound 243, (1S,3R,4S,5R)-3-((5-chloro-4-(4-fluoro-2-((1r,3R)-3-fluorocyclobutyl)-1-isopropyl-1H-benzo[d]imidazol-6-yl)pyrimidin-2-yl)amino)-6,8-dioxabicyclo[3.2.1]octan-4-ol]",,40 to 150 nM,> 1000 nM,
"C[C@@H]1COc2c(-c3nc(N[C@@H]4C[C@H]5CO[C@H](O5)[C@H]4O)ncc3Cl)cc(F)c3nc(C(C)(C)O)n1c23 [Compound 38, (1S,3R,4S,5R)-3-((5-chloro-4-((R)-8-fluoro-2-(2-hydroxypropan-2-yl)-3-methyl-3,4-dihydro-5-oxa-1,2a-diazaacenaphthylen-6-yl)pyrimidin-2-yl)amino)-6,8-dioxabicyclo[3.2.1]octan-4-ol]",≤ 40 nM,,,120 to 450 nM
"CC(C)n1c(C2CC(F)C2)nc2c(F)cc(-c3nc(N[C@@H]4C[C@H]5CO[C@H](O5)[C@H]4O)ncc3Cl)cc21 (stereo partly drawn) [Compound 242, (1S,3R,4S,5R)-3-((5-chloro-4-(4-fluoro-2-((1s,3S)-3-fluorocyclobutyl)-1-isopropyl-1H-benzo[d]imidazol-6-yl)pyrimidin-2-yl)amino)-6,8-dioxabicyclo[3.2.1]octan-4-ol]",≤ 40 nM,,,120 to 450 nM
"CC(C)n1c(C(C)(C)N2CC(F)(F)C2)nc2c(F)cc(-c3nc(N[C@@H]4C[C@H]5CO[C@H](O5)[C@H]4O)ncc3Cl)cc21 [Compound 222, (1S,3R,4S,5R)-3-((5-chloro-4-(2-(2-(3,3-difluoroazetidin-1-yl)propan-2-yl)-4-fluoro-1-isopropyl-1H-benzo[d]imidazol-6-yl)pyrimidin-2-yl)amino)-6,8-dioxabicyclo[3.2.1]octan-4-ol]",150 to 1000 nM,,,450 to 3000 nM
"CC1=Nc2c(F)cc(-c3nc(N[C@@H]4C[C@H]5CO[C@H](O5)[C@H]4O)ncc3Cl)cc2C12CCCC2 [Compound 32, (1S,3R,4S,5R)-3-((5-chloro-4-(7′-fluoro-2′-methylspiro[cyclopentane-1,3′-indol]-5′-yl)pyrimidin-2-yl)amino)-6,8-dioxabicyclo[3.2.1]octan-4-ol]",≤ 40 nM,,,≤ 120 nM

# More lines, now with the values ahead:
IC50 [1],IC50 [2],IC50 [3],GI50 (22RV1 cells),SMILES
150 to 1000 nM,,,≤ 120 nM,"Cc1c(C(C)(C)O)nnc2c(F)cc(-c3nc(N[C@@H]4C[C@H]5CO[C@H](O5)[C@H]4O)ncc3F)cc12 [Compound 280, (1S,3R,4S,5R)-3-((5-fluoro-4-(8-fluoro-3-(2-hydroxypropan-2-yl)-4-methylcinnolin-6-yl)pyrimidin-2-yl)amino)-6,8-dioxabicyclo[3.2.1]octan-4-ol]"
150 to 1000 nM,,,450 to 3000 nM,"O[C@@H]1[C@@H]2OC[C@H](C[C@H]1Nc1ncc(Cl)c(-c3cc(F)c4ncc(CN5CCOCC5)cc4c3)n1)O2 [Compound 261, (1S,3R,4S,5R)-3-((5-chloro-4-(8-fluoro-3-(morpholinomethyl)quinolin-6-yl)pyrimidin-2-yl)amino)-6,8-dioxabicyclo[3.2.1]octan-4-ol]"
150 to 1000 nM,,,450 to 3000 nM,"CC(C)n1c(N2C(=O)OC[C@H]2C)nc2c(F)cc(-c3nc(N[C@@H]4C[C@H]5CO[C@H](O5)[C@H]4O)ncc3Cl)cc21 [Compound 296, (R)-3-(6-(5-chloro-2-(((1S,3R,4S,5R)-4-hydroxy-6,8-dioxabicyclo[3.2.1]octan-3-yl)amino)pyrimidin-4-yl)-4-fluoro-1-isopropyl-1H-benzo[d]imidazol-2-yl)-4-methyloxazolidin-2-one]"
150 to 1000 nM,,,> 3000 nM,"Cc1c(CN2C[C@@H](C)OC2=O)n(C(C)C)c2cc(-c3nc(N[C@@H]4C[C@H]5CO[C@H](O5)[C@H]4O)ncc3F)ccc2c1=O [Compound 271, (R)-3-((7-(5-fluoro-2-(((1S,3R,4S,5R)-4-hydroxy-6,8-dioxabicyclo[3.2.1]octan-3-yl)amino)pyrimidin-4-yl)-1-isopropyl-3-methyl-4-oxo-1,4-dihydroquinolin-2-yl)methyl)-5-methyloxazolidin-2-one]"
150 to 1000 nM,,,450 to 3000 nM,"CC(C)(O)c1cnc2c(F)cc(-c3nc(N[C@@H]4C[C@H]5CO[C@H](O5)[C@H]4O)ncc3Cl)cc2n1 [Compound 264, (1S,3R,4S,5R)-3-((5-chloro-4-(8-fluoro-3-(2-hydroxypropan-2-yl)quinoxalin-6-yl)pyrimidin-2-yl)amino)-6,8-dioxabicyclo[3.2.1]octan-4-ol]"
